The results in this text go back to BindingDB's records for doi:10.1021/jm00078a018 (Merck Research Laboratories, 1994).

The assay is described as follows: Inhibition of binding of [125I]-CCK-8 to the cholecystokinin type B receptor.
A word on the IC50: it is the point on the concentration scale where inhibition reaches its midpoint. Regarding `O=C(Nc1ccc(Cl)cc1)NC1N=C(c2ccccc2)c2ccccc2N(CC(=O)N2CCCC2)C1=O` (stereo not drawn), the IC50 amounted to 1.6 nM. In other words, the single-digit nanomolar range.

`CN1C(=O)[C@H](NC(=O)c2ccc(C(F)(F)F)cc2)N=C(c2ccccc2)c2ccccc21` registered an IC50 of 3300 nM.

`O=C(Nc1ccc(Cl)cc1)N[C@H]1N=C(c2ccccc2)c2ccccc2N(CC(=O)N2CCCC2)C1=O` showed an IC50 of 13 nM.

`CN1C(=O)[C@H](NC(=O)Nc2cccc(I)c2)N=C(c2ccccc2)c2ccccc21` gave an IC50 of 6.9 nM. Against the preceding compound, the IC50 is about 1.9-fold lower.

For the compound `CN1C(=O)[C@@H](NC(=O)c2ccc(C(F)(F)F)cc2)N=C(c2ccccc2)c2ccccc21`, the IC50 was 4600 nM.

In turn, `COc1cccc(NC(=O)N[C@@H]2N=C(c3ccccc3)c3ccccc3N(C)C2=O)c1` displayed an IC50 of 2.2 nM.

`CN1C(=O)[C@H](NC(=O)Nc2cccc(N)c2)N=C(c2ccccc2)c2ccccc21` registered an IC50 of 33 nM.

Take `CN1C(=O)[C@H](NC(=O)NCc2cccc(O)c2)N=C(c2ccccc2)c2ccccc21`: the IC50 was 19 nM.

The compound `CC(=O)Oc1cccc(NC(=O)N[C@@H]2N=C(c3ccccc3)c3ccccc3N(C)C2=O)c1` displayed an IC50 of 500 nM.

In turn, `CN1C(=O)[C@H](NC(=O)Nc2cccc(O)c2)N=C(c2ccccc2)c2ccccc21` gave an IC50 of 15 nM. Compared with the last compound, the IC50 is about 33-fold lower.

As to `C=Cc1cccc(NC(=O)N[C@@H]2N=C(c3ccccc3)c3ccccc3N(C)C2=O)c1`, the IC50 is 35 nM.

`CN1C(=O)[C@H](NC(=O)Nc2cccc(CN)c2)N=C(c2ccccc2)c2ccccc21` showed an IC50 of 719 nM.

In the case of `CN1C(=O)[C@H](NC(=O)Nc2ccccc2Cl)N=C(c2ccccc2)c2ccccc21`, the IC50 stood at 61 nM.

Take `COc1cccc(NC(=O)N[C@H]2N=C(c3ccccc3)c3ccccc3N(C)C2=O)c1`: the IC50 is 300 nM.

Regarding `Cc1cccc(NC(=O)N[C@@H]2N=C(c3ccccc3)c3ccccc3NC2=O)c1`, the IC50 turned out to be 40 nM.

In turn, `CN1C(=O)[C@@H](NC(=O)Nc2ccccc2Cl)N=C(c2ccccc2)c2ccccc21` displayed an IC50 of 280 nM.

`CN1C(=O)[C@H](NC(=O)Nc2cccc(Br)c2)N=C(c2ccccc2)c2ccccc21` returned an IC50 of 3.8 nM.

As for `CN1C(=O)[C@H](NC(=O)Nc2cccc(Cl)c2)N=C(c2ccccc2)c2ccccc21`, the IC50 stood at 7.5 nM. This IC50 lies about 2-fold higher than the previous one.

Compound `O=C(Nc1ccc(Cl)cc1)N[C@@H]1N=C(c2ccccc2)c2ccccc2N(CC(=O)N2CCCC2)C1=O` returned an IC50 of 1.4 nM.

Regarding `Cc1cccc(NC(=O)NC2N=C(c3ccccc3)c3ccccc3N(CC(=O)N3CC[N+](C)(C)CC3)C2=O)c1` (stereo not drawn) [1,1-Dimethyl-4-{2-[2-oxo-5-phenyl-3-(3-m-tolyl-ureido)-2,3-dihydro-benzo[e][1,4]diazepin-1-yl]-acetyl}-piperazin-1-ium; iodide], the IC50 is 58 nM. Compared with the last compound, the IC50 is about 41-fold higher.

`C[C@H](NC(=O)NC1N=C(c2ccccc2)c2ccccc2N(C)C1=O)c1ccccc1` (stereo partly drawn) [1-(1-Methyl-2-oxo-5-phenyl-2,3-dihydro-1H-benzo[e][1,4]diazepin-3-yl)-3-(1-phenyl-ethyl)-urea] came in with an IC50 of 11000 nM.

With `CN1C(=O)C(NC(=O)Nc2ccccc2[N+](=O)[O-])N=C(c2ccccc2)c2ccccc21` (stereo not drawn) [1-(1-Methyl-2-oxo-5-phenyl-2,3-dihydro-1H-benzo[e][1,4]diazepin-3-yl)-3-(2-nitro-phenyl)-urea], the IC50 came to 1200 nM.

The compound `CN1C(=O)C(NC(=O)Nc2cccc([N+](=O)[O-])c2)N=C(c2ccccc2)c2ccccc21` (stereo not drawn) [1-(1-Methyl-2-oxo-5-phenyl-2,3-dihydro-1H-benzo[e][1,4]diazepin-3-yl)-3-(3-nitro-phenyl)-urea] yielded an IC50 of 11 nM.

`CN1C(=O)C(NC(=O)Nc2cccc(C(F)(F)F)c2)N=C(c2ccccc2)c2ccccc21` (stereo not drawn) [1-(1-Methyl-2-oxo-5-phenyl-2,3-dihydro-1H-benzo[e][1,4]diazepin-3-yl)-3-(3-trifluoromethyl-phenyl)-urea] had an IC50 of 3.8 nM.

As for `CN1C(=O)C(NC(=O)Nc2ccc([N+](=O)[O-])cc2)N=C(c2ccccc2)c2ccccc21` (stereo not drawn) [1-(1-Methyl-2-oxo-5-phenyl-2,3-dihydro-1H-benzo[e][1,4]diazepin-3-yl)-3-(4-nitro-phenyl)-urea], the IC50 was determined as 46 nM.

With `CN1C(=O)C(NC(=O)Nc2ccc(C(F)(F)F)cc2)N=C(c2ccccc2)c2ccccc21` (stereo not drawn) [1-(1-Methyl-2-oxo-5-phenyl-2,3-dihydro-1H-benzo[e][1,4]diazepin-3-yl)-3-(4-trifluoromethyl-phenyl)-urea], the IC50 is 5.7 nM.

In turn, `CN1C(=O)C(NC(=O)Nc2cccc3ccccc23)N=C(c2ccccc2)c2ccccc21` (stereo not drawn) [1-(1-Methyl-2-oxo-5-phenyl-2,3-dihydro-1H-benzo[e][1,4]diazepin-3-yl)-3-naphthalen-1-yl-urea] registered an IC50 of 79 nM.

On to `CN1C(=O)C(NC(=O)Nc2ccccc2)N=C(c2ccccc2)c2ccccc21` (stereo not drawn) [1-(1-Methyl-2-oxo-5-phenyl-2,3-dihydro-1H-benzo[e][1,4]diazepin-3-yl)-3-phenyl-urea], for which the IC50 came out at 32 nM.

Turning to `CN1C(=O)C(NC(=O)Nc2ccccn2)N=C(c2ccccc2)c2ccccc21` (stereo not drawn) [1-(1-Methyl-2-oxo-5-phenyl-2,3-dihydro-1H-benzo[e][1,4]diazepin-3-yl)-3-pyridin-2-yl-urea], the IC50 was found to be 337 nM. This IC50 lies about 11-fold higher than the previous one.

`CN1C(=O)C(NC(=O)Nc2cccnc2)N=C(c2ccccc2)c2ccccc21` (stereo not drawn) [1-(1-Methyl-2-oxo-5-phenyl-2,3-dihydro-1H-benzo[e][1,4]diazepin-3-yl)-3-pyridin-3-yl-urea]: the IC50 is 310 nM.

As for `CN1C(=O)C(NC(=O)Nc2ccncc2)N=C(c2ccccc2)c2ccccc21` (stereo not drawn) [1-(1-Methyl-2-oxo-5-phenyl-2,3-dihydro-1H-benzo[e][1,4]diazepin-3-yl)-3-pyridin-4-yl-urea], the IC50 worked out at 1070 nM.

For `CN1C(=O)C(NC(=O)Nc2ccc3ccccc3n2)N=C(c2ccccc2)c2ccccc21` (stereo not drawn) [1-(1-Methyl-2-oxo-5-phenyl-2,3-dihydro-1H-benzo[e][1,4]diazepin-3-yl)-3-quinolin-2-yl-urea], the IC50 worked out at 26 nM.

`CN1C(=O)C(NC(=O)Nc2ccc3ncccc3c2)N=C(c2ccccc2)c2ccccc21` (stereo not drawn) [1-(1-Methyl-2-oxo-5-phenyl-2,3-dihydro-1H-benzo[e][1,4]diazepin-3-yl)-3-quinolin-6-yl-urea] had an IC50 of 52 nM. This IC50 lies about 2-fold higher than the previous one.

The compound `Cc1cccc(NC(=O)NC2N=C(c3ccccc3)c3cnccc3N(C)C2=O)c1` (stereo not drawn) [1-(1-Methyl-2-oxo-5-phenyl-2,3-dihydro-1H-pyrido[4,3-e][1,4]diazepin-3-yl)-3-m-tolyl-urea] returned an IC50 of 632 nM.

With `Cc1cccc(NC(=O)NC2N=C(c3cccnc3)c3ccccc3N(C)C2=O)c1` (stereo not drawn) [1-(1-Methyl-2-oxo-5-pyridin-3-yl-2,3-dihydro-1H-benzo[e][1,4]diazepin-3-yl)-3-m-tolyl-urea], the IC50 amounted to 92 nM.

`Cc1cccc(NC(=O)NC2N=C(c3ccncc3)c3ccccc3N(C)C2=O)c1` (stereo not drawn) [1-(1-Methyl-2-oxo-5-pyridin-4-yl-2,3-dihydro-1H-benzo[e][1,4]diazepin-3-yl)-3-m-tolyl-urea] registered an IC50 of 52 nM.

Turning to `CN1C(=O)C(NC(=O)Nc2ccc(Cl)cc2Cl)N=C(c2ccccc2)c2ccccc21` (stereo not drawn) [1-(2,4-Dichloro-phenyl)-3-(1-methyl-2-oxo-5-phenyl-2,3-dihydro-1H-benzo[e][1,4]diazepin-3-yl)-urea], the IC50 was found to be 220 nM.

Take `COc1ccccc1NC(=O)NC1N=C(c2ccccc2)c2ccccc2N(C)C1=O` (stereo not drawn) [1-(2-Methoxy-phenyl)-3-(1-methyl-2-oxo-5-phenyl-2,3-dihydro-1H-benzo[e][1,4]diazepin-3-yl)-urea]: the IC50 stood at 1200 nM.
